The test system of experiment [1] is S. aureus strain NCTC 8325. In words: minimal inhibiting concentration (MIC) in liquid bacterial culture. In kind it is cell-based. As to conditions: overnight 37° C. Here is the method: (§1) 1 ml of an appropriate bacterial broth for the standard laboratory S. aureus strain NCTC 8325 were inoculated with 1*10^6 cfu. The cultures were kept overnight at 37° C. with gentle shaking 300 rpm in the presence of compounds AVU1Acid, AVU1AAc, AVU1AA or VK273 according to the present invention at different concentrations or dimethyl sulfoxide (DMSO) as control. Different beta-lactone virulence inhibitors were used as reference compounds. Following overnight incubation the optical density was measured in order to determine the minimal inhibiting concentration (MIC), which is defined as the lowest concentration of an antimicrobial that will inhibit the visible growth of a microorganism after overnight incubation. A 100 μl fraction of the supernatant of the grown bacterial cultures was subsequently analysed for the content of secreted bacterial hemolysins by addition of sheep red blood cells (10% v/v in PBS) and the measurement of the optical density at 410 nm after 30 min incubation at 37° C.

In experiment [2] the test system is S. aureus strain NCTC 8325. In words: liquid culture-based hemolysis assay (secreted hemolysins, sheep red blood cells). It is filed as cell-based. The method, then: The inhibition of hemolysin production has thus been further analysed in liquid bacterial cultures in order to evaluate their potential effects on bacterial growth simultaneously. Besides AVU1Acid, AVU1AAc, AVU1AA and VK273 the following further compounds were tested in liquid bacterial cultures:
as §1
The following results were obtained in further liquid culture-based hemolysis assays. Since the assays were performed at different times with different charges of sheep red blood cells AVU1 has been tested as a reference substance in each assay. The resulting EC50 values determined for the tested compounds have to be assessed with respect to the EC50 value determined for AVU1.

The subject of the next experiment is S. aureus NCTC 8325. Nature of the experiment: agar plate-based hemolysis assay on sheep blood agar. It is filed as cell-based. The note with it: FIG. 1; over night at 37° C. The text has this: Several compounds of the invention as well as reference compounds have been tested against S. aureus NCTC 8325 on sheep blood agar. Hemolysins are key virulence factors of S. aureus that contribute to the pathogenicity of these bacteria. The production of hemolysins can be easily monitored by lysis of sheep blood and generation of a clear zone around the bacterial colonies on the agar plate. Hemolysins are co-regulated with the majority of important virulence factors and have been qualified in previous studies as a reliable measure of agr quorum sensing regulated virulence (T. Böttcher, S. A. Sieber, J Am Chem Soc 2008, 130, 14400).
Agar plate-based hemolysis was tested on 5% sheep blood agar plates (Heipha Diagnostika, Eppelheim, Germany). Sterile circles of Whatman® cards (No. 1, Schleicher & Schuell) with 5.5 mm diameter were placed on the agar plates and inoculated with 2.5 μL of the corresponding lactone/DMSO and 2.5 μL stationary phase culture of S. aureus NCTC 8325 diluted to OD600=0.13. The plates were incubated over night at 37° C. and the diameters of the zones around the bacterial colonies were precisely measured using a vernier caliper. Doses of the compounds required to produce the half maximum effect (ED50) were calculated from curve fittings by Microcal™ Origin 6.0.

Experiment [3] concerns the target T1, CIpP protease from S. aureus NCTC8325 (SaCIpP) (Staphylococcus aureus, UniProt Q2G036).
T1 construct: made in house; host or cells: E. coli
T1 sequence (Q2G036 1-195): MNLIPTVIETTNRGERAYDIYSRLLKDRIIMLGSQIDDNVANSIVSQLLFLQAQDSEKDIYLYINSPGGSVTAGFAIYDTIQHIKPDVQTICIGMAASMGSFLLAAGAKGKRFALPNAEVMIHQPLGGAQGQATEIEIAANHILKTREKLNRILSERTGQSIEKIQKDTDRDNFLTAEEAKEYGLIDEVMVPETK
In words: in vitro inhibition of recombinant S. aureus CIpP with SLY-AMC substrate. It is filed as biochemical. The note with it: inhibitor 2 mM (1000×), 30 min RT; SLY-AMC 200 μM; FIG. 3. The method, then:
The CIpP protease from S. aureus NCTC8325 (SaCIpP) was recombinantly overexpressed in E. coli and purified in order to investigate enzyme inhibition using SLY-AMC (N-succinyl-Leu-Tyr-7-amido-4-methylcoumarin) as fluorogenic model substrate.
Precisely, 9 μl of SaCIpP in buffered solution (final concentration 0.05 mg/ml, 2 μM; buffer: 100 mM NaCl, 20 mM Tris, pH 7.0) were incubated in the presence of 1 μl of various inhibitors (final concentration 2 mM=1000×) for 30 min at room temperature (RT). Subsequently, SLY-AMC was added to a final concentration of 200 μM and the increase in fluorescence due to enzymatic substrate proteolysis was measured using a TECAN GENios Pro™ plate reader at 380/440 nm (excitation/emission) at time intervals of 60 s over 40 min at 37° C. The enzymatic activity was determined as the slope of fluorescence (2=440 nm) over time. As positive controls, the in vivo active beta-lactone compound AVU1 (“U1”; WO 2009/106211) and the in vitro potent CIpP beta-lactone inhibitor D3 (WO 2009/106211) were employed.

Where [4] appears, read: Assay 4, hemolysin production, assess relative to AVU1.
Setting [5] is: Staphylococcus aureus, NCTC8325, Assay 3, read-out: MIC.
Setting [6] is: Staphylococcus aureus, NCTC8325, Erythrocyte, Assay 3, hemolysin production, assess relative to AVU1.
Setting [7] is: Staphylococcus aureus, NCTC8325, Assay 1, read-out: MIC.
The mark [8] stands for this setting: Staphylococcus aureus, NCTC8325, Erythrocyte, Assay 1, hemolysin production.
[9] abbreviates: Assay 2, hemolysin production, assess relative to AVU1.

Converted amounts (≈) assume the structure as drawn. Where two headings read alike, the source gives them in different places.

Regarding `C#CCCCCCCC[C@H](C(=O)O)[C@H](O)CCc1ccc(C2(C(F)(F)F)N=N2)cc1` (relative stereo) [JS-11_1, (3R*,2S*)-3-Hydroxy-2-(8-noninyl)-5-(4-(3-trifluoromethyl-3H-diazirinyl)-phenyl)-pentanoic acid], in experiment [1] (Assay 4), the minimal inhibitory concentration (MIC) lay in the range of 10 to 50 µM. The compound further came in with a concentration giving a half-maximal response (EC50) in experiment [2] (setting [4]) of 3.6 µM.
As to `C#CCCCCCCC[C@@H](C(=O)O)[C@H](O)CCc1ccc(C2(C(F)(F)F)N=N2)cc1` (relative stereo) [JS-11_2, (3R*,2R*)-3-Hydroxy-2-(8-noninyl)-5-(4-(3-trifluoromethyl-3H-diazirinyl)-phenyl)-pentanoic acid], the MIC in experiment [1] (Assay 4) lay within 10 to 50 µM. The same compound showed an EC50 in experiment [2] (setting [4]) of 2.2 µM.
On to `C#CCCCCCCC[C@H](C(=O)OC)[C@H](O)CCc1ccc(C2(C(F)(F)F)N=N2)cc1` (relative stereo) [JS-14_1, Methyl (3R*,2S*)-3-Hydroxy-2-(8-noninyl)-5-(4-(3-trifluoromethyl-3H-diazirinyl)-phenyl)-pentanoate], for which, in experiment [1] (Assay 4, read-out: MIC), the MIC was >1000 µM. This compound also gave an EC50 in experiment [2] (setting [4]) of 166 µM.
On to `C#CCCCCCCC[C@H](C(N)=O)[C@H](O)CCc1ccc(C2(C(F)(F)F)N=N2)cc1` (relative stereo) [JS-14_1Amid, (3R*,2S*)-3-Hydroxy-2-(8-noninyl)-5-(4-(3-trifluoromethyl-3H-diazirinyl)-phenyl)-pentanamide], for which the MIC in experiment [1] (Assay 4, read-out: MIC) is recorded as >1000 µM. In experiment [2] (setting [4]), this compound showed an EC50 of 2.3 µM.
The matching figures for `C#CCCCCCCC[C@@H](C(=O)OC)[C@H](O)CCc1ccc(C2(C(F)(F)F)N=N2)cc1` (relative stereo) [JS-14_2, Methyl (3R*,2R*)-3-Hydroxy-2-(8-noninyl)-5-(4-(3-trifluoromethyl-3H-diazirinyl)-phenyl)-pentanoate]: >1000 µM and 64 µM.
For the compound `C#CCCCCCCC[C@@H](C(N)=O)[C@H](O)CCc1ccc(C2(C(F)(F)F)N=N2)cc1` (relative stereo) [JS-14_2Amid, (3R*,2R*)-3-Hydroxy-2-(8-noninyl)-5-(4-(3-trifluoromethyl-3H-diazirinyl)-phenyl)-pentanamide], in experiment [1] (Assay 4, read-out: MIC), the minimum inhibitory concentration (MIC) is recorded as >1000 µM. Besides, the EC50 in experiment [2] (setting [4]) was 2.8 µM.
On to `C=CCCCCCCC[C@@H](C(N)=O)[C@H](O)CCCc1ccccc1` (relative stereo) [VK375, (2R*,3R*)-3-Hydroxy-2-(non-8-enyl)-6-phenylhexanamide], for which the MIC in experiment [1] (Assay 3, read-out: MIC) was >1000 µM; in experiment [1] (setting [5]), > 1000 µM. In experiment [2] (setting [6]), this compound showed an EC50 of 1 to 5 µM.
In the case of `NC(=O)[C@H](CCc1ccccc1)[C@H](O)CCc1ccccc1` (relative stereo) [VK403-1, (2R*,3R*)-3-Hydroxy-2-(2-phenylethyl)-5-phenylpentanamide], the MIC in experiment [1] (Assay 3, read-out: MIC) was >1000 µM; in experiment [1] (setting [5]), > 1000 µM. In experiment [2] (setting [6]), this compound had an EC50 of 50 to 100 µM.
On to `CCCCCCCCC[C@@H](C(N)=O)[C@H](O)CCc1ccccc1` (relative stereo) [VK453-1, (2R*,3R*)-3-Hydroxy-2-nonyl-5-phenylpentanamide], for which the MIC in experiment [1] (Assay 2, read-out: MIC) was >1000 µM; in experiment [1] (Staphylococcus aureus, NCTC8325, Assay 2, read-out: MIC), > 1000 µM. The same compound yielded an EC50 in experiment [2] (Staphylococcus aureus, NCTC8325, Erythrocyte, Assay 2, hemolysin production, assess relative to AVU1) of 1 to 5 µM.
Turning to `C=CCCCCCCC[C@@H](C(N)=O)[C@H](O)Cc1ccccc1` (relative stereo) [VK508-3, (2R*,3R*)-3-Hydroxy-2-(non-8-enyl)-4-phenylbutanamide], the MIC in experiment [1] (Assay 3, read-out: MIC) is >1000 µM; in experiment [1] (setting [5]) it was > 1000 µM. Moreover, the EC50 in experiment [2] (setting [6]) was in the range of 10 to 50 µM.
With `C=CCCCCCCCC(C(=O)O)C(CCc1ccccc1)OC(C)=O` (stereo not shown) [AVU1AAc, 3-acetoxy-2-(non-8-enyl)-5-phenylpentanoic acid], the MIC in experiment [1] (setting [7]) was in the range of 50 to 100 µM (≈ 18 to 36 µg/mL). In experiment [2] (setting [8]), this compound yielded an EC50 of 2.43 µM. In the experiment on S. aureus NCTC 8325, the “inhibition of hemolysis (virulence inhibition) on sheep blood agar” value (“inhibition of hemolysis” below) was “high”. Besides, the “inhibition of SaCIpP” value in experiment [3] is “inhibit SaCIpP at an at least comparable level as the in vivo active beta-lactone reference compound AVU1”.
Turning to `C=CCCCCCCCC(C(=O)SCC(NC(C)=O)C(=O)OC)C(CCc1ccccc1)OC(C)=O` (stereo not shown) [AVU1AAcTE, reference compound], in the experiment with S. aureus NCTC 8325, the “inhibition of hemolysis” value was “only low efficiency and incomplete inhibition of hemolysis”.
Turning to `C=CCCCCCCCC(C(=O)OC)C(O)CCc1ccccc1` (stereo not shown) [AVU1AME], in the experiment with S. aureus NCTC 8325, the “inhibition of hemolysis” value is “moderate”. For the same compound, the “inhibition of SaCIpP” value in experiment [3] is reported as “inhibit SaCIpP at an at least comparable level as the in vivo active beta-lactone reference compound AVU1”.
As to `C=CCCCCCCCC(C(=O)O)C(O)CCc1ccccc1` (stereo not shown) [AVU1Acid, 3-hydroxy-2-(non-8-enyl)-5-phenylpentanoic acid], the MIC in experiment [1] (setting [7]) lay within 50 to 100 µM (≈ 15.9 to 31.8 µg/mL). This compound also gave a half-maximal effective concentration (EC50) in experiment [2] (setting [8]) of 1.18 µM. Moreover, in the experiment with S. aureus NCTC 8325, the “inhibition of hemolysis” value is listed as “potent virulence inhibitors”.
For the compound `C=CCCCCCCCC1OC(=O)C1CCc1ccccc1` (stereo not shown) [AVU4, reference compound], the MIC in experiment [1] (setting [7]) is > 1000 µM. This compound registered a half-maximal effective concentration (EC50) in experiment [2] (setting [8]) of 435 µM.
For `C=CCCCCCCC[C@H]1C(=O)O[C@@H]1CCc1cc(F)cc(F)c1` [AVU5, reference compound], the MIC in experiment [1] (setting [7]) is > 1000 µM. The compound further showed an EC50 in experiment [2] (setting [8]) of 16.1 µM.
The matching figures for `C=CCCCCCCC[C@H]1C(=O)O[C@@H]1Cc1ccccc1` [AVU6, reference compound]: > 1000 µM and 440 µM.
The matching figures for `C=CCCCCCCC[C@H]1C(=O)O[C@@H]1CCCc1ccccc1` [AVU7, reference compound]: > 1000 µM and 22 µM.
As to `C#CCCCCCCCC(C(=O)O)C(O)CCc1ccc(C(=O)c2ccccc2)cc1` (stereo not shown) [JS-64, 5-(4-Benzoylphenyl)-3-hydroxy-2-(8-noninyl)-pentanoic acid], in experiment [1] (Assay 2, read-out: MIC), the minimal inhibitory concentration (MIC) was >1000 µM. For the same compound, the EC50 in experiment [2] (setting [9]) is 1 to 5 µM.
The corresponding values for `C#CCCCCCCCC(C(N)=O)C(O)CCc1ccc(C(=O)c2ccccc2)cc1` (stereo not shown) [JS-65, 5-(4-Benzoylphenyl)-3-hydroxy-2-(8-noninyl)-pentanamide] are >1000 µM and 1 to 5 µM.

The values above are taken from patent publication US20140323457A1, “BETA-O/S/N FATTY ACID BASED COMPOUNDS AS ANTIBACTERIAL AND ANTIPROTOZOAL AGENTS” (LUDWIG-MAXIMILIANS-UNIVERSITÄT MÜNCHEN, priority 2011, published 2014).
